{"source": "patent EP0561850B1", "about": "“7-SUBSTITUTED-6-FLUORO-1,4-DIHYDRO-4-OXO-QUINOLINE-3-CARBOXYLIC ACID COMPOUNDS USEFUL AS ANTIBACTERIAL AGENTS” (priority 1990, dated 1992)", "key": {"[1]": {"system": "Staphylococcus aureus S-127", "experiment": "In vitro antimicrobial activity against aerobes, broth microdilution (NCCLS 1985)", "assay_type": "cell-based", "conditions": "S127, read after 16-18 hours", "method": "(§1) For aerobic microorganisms, a cation supplemented Mueller Hinton Broth (BBL) was used whereas the Anaerobe Broth MIC (Difco) was used for anaerobic microorganisms. An agar Dilution method was employed for certain aerobic microorganisms using Mueller Hinton II Agar (BBL) and a Cathra multipoint inoculating device which delivered 10^4 cfu/spot of the inoculum on the agar surface. MICs were read after 16-18 hours and 48 hours of incubation in case of microbes growing aerobically and anaerobically respectively."}, "[2]": {"system": "Methicillin Resistant S. aureus (MRSAs)", "experiment": "In vitro antimicrobial activity against methicillin resistant S. aureus", "assay_type": "cell-based", "conditions": "Staphylococcus aureus; MRSA (6 C.I.), C.I. = Clinical Isolates", "method": "as §1"}, "[3]": {"system": "Quinoline Resistant MRSAs (QRMRSAs)", "experiment": "In vitro antimicrobial activity against quinoline resistant MRSA", "assay_type": "cell-based", "conditions": "Staphylococcus aureus; QRMRSA (8 C.I.), C.I. = Clinical Isolates", "method": "as §1"}, "[4]": {"system": "Peptostreptococcus asaccharolyticus AN-16", "experiment": "In vitro antimicrobial activity against anaerobes, broth microdilution", "assay_type": "cell-based", "conditions": "Peptoniphilus asaccharolyticus", "description": "as §1, with “The compounds of the invention display antibacterial activity when tested by the broth microdilution method as described in the NCCLS publications M7-A, M11-A and M17-P of the year 1985. For” for “For”\n(§2) By use of the above method, the following minimum inhibitory concentration values (MICs in µg/ml) were obtained: Table 1, against microbes growing aerobically; Table 2, against microbes growing anaerobically; Table 3, against methicillin resistant Staphylococcus aureus and quinoline resistant-methicillin resistant Staphylococcus aureus."}, "[5]": {"system": "Fusobacterium mortiferum AN-13", "experiment": "In vitro antimicrobial activity against anaerobes, broth microdilution", "assay_type": "cell-based", "description": "as §1, with “The compounds of the invention display antibacterial activity when tested by the broth microdilution method as described in the NCCLS publications M7-A, M11-A and M17-P of the year 1985. For” for “For”\nas §2"}, "[6]": {"system": "Streptococcus intermedius AN-19", "experiment": "In vitro antimicrobial activity against anaerobes, broth microdilution", "assay_type": "cell-based", "description": "as §1, with “The compounds of the invention display antibacterial activity when tested by the broth microdilution method as described in the NCCLS publications M7-A, M11-A and M17-P of the year 1985. For” for “For”\nas §2"}, "[7]": {"system": "Bacteroides fagilis AN-2", "experiment": "In vitro antimicrobial activity against anaerobes, broth microdilution", "assay_type": "cell-based", "description": "as §1, with “The compounds of the invention display antibacterial activity when tested by the broth microdilution method as described in the NCCLS publications M7-A, M11-A and M17-P of the year 1985. For” for “For”\nas §2"}, "[8]": {"system": "Propionobacterium acne AN-17", "experiment": "In vitro antimicrobial activity against anaerobes, broth microdilution", "assay_type": "cell-based", "description": "as §1, with “The compounds of the invention display antibacterial activity when tested by the broth microdilution method as described in the NCCLS publications M7-A, M11-A and M17-P of the year 1985. For” for “For”\nas §2"}, "[9]": {"system": "Klebsiella pneumoniae S-80", "experiment": "Microbroth dilution (MHB) method, NCCLS M7-A2", "assay_type": "cell-based", "conditions": "Klebsiella pneumoniae, S80", "method": "(§3) The test organisms were obtained from ATCC and clinical laboratories. The 96-well microtitre plates containing […] of serially diluted test compounds in Mueller Hinton Broth (MHB) (conc. range 64-0.03 µg/ml) were inoculated with […] of bacterial suspension in MHB so that an inoculum size of 5 x 10^5 cfu/ml was achieved.\n(§4) EC. (S- 63): Eschericia coli Ecl. (S- 130): Enterobacter cloacae Pa. (S- 67): Pseudomonas aeruginosa Kp. (S- 80): Klebsiella pneumoniae Pr.\n(§5) Microbroth Dilution (MHB) method; Inoculum, 5 x 10^5 cfu/ml; Incubation 35 °C/18 hr"}, "[10]": {"system": "Eschericia coli S-63", "experiment": "Microbroth dilution (MHB) method, NCCLS M7-A2", "assay_type": "cell-based", "conditions": "Ec S-63, inoculum 5 x 10^5 cfu/ml, 35 °C/18 hr, read-out: MIC", "method": "as §3, §4, §5"}, "[11]": {"system": "Pseudomonas aeruginosa S-67", "experiment": "Microbroth dilution (MHB) method, NCCLS M7-A2", "assay_type": "cell-based", "conditions": "Pseudomonas aeruginosa, S67", "method": "as §3, §4, §5"}, "[12]": {"system": "Providencia rettgeri S-121", "experiment": "Microbroth dilution (MHB) method, NCCLS M7-A2", "assay_type": "cell-based", "conditions": "Providencia rettgeri, S121, Pr S-121, inoculum 5 x 10^5 cfu/ml, 35 °C/18 hr, read-out: MIC", "method": "as §3, §4, §5"}, "[13]": {"system": "Sa 127M", "experiment": "Microbroth dilution (MHB) method, NCCLS M7-A2", "assay_type": "cell-based, Staphylococcus aureus", "conditions": "Staphylococcus aureus, inoculum 5 x 10^5 cfu/ml, 35 °C/18 hr, read-out: MIC", "method": "as §3, §4, §5"}, "[14]": {"conditions": "AN16, Peptostreptococcus asaccharolyticus AN-16, anaerobes, read after 48 hours, read-out: MIC"}, "[15]": {"conditions": "AN13, Fusobacterium mortiferum AN-13, anaerobes, read after 48 hours, read-out: MIC"}, "[16]": {"conditions": "AN19, Streptococcus intermedius AN-19, anaerobes, read after 48 hours, read-out: MIC"}, "[17]": {"conditions": "AN2, Bacteroides fagilis AN-2, anaerobes, read after 48 hours, read-out: MIC"}, "[18]": {"conditions": "Propionobacterium acne AN-17, anaerobes, read after 48 hours, read-out: MIC"}}, "note": "Read-outs that look alike come from different tables or passages of the source."}
{"compound": "Nc1c(F)c(N2CC[C@@H](n3ccnn3)C2)c(F)c2c1c(=O)c(C(=O)O)cn2-c1ccc(F)cc1F", "note": "[Example 16, 5-Amino-1-(2,4-difluorophenyl)-6,8-difluoro-7-[3R-(1,2,3-triazol-1-yl)-pyrrolidin-1-yl]-1,4-dihydro-4-oxo-quinoline-3-carboxylic acid]", "values": [{"measurement": "MIC", "setting": "[1]", "value": 0.015, "unit": "µg/mL"}]}
{"compound": "O=C(O)c1cn(C2CC2)c2nc(N3CC[C@H](n4ccnn4)C3)c(F)cc2c1=O", "note": "[Example 5]", "values": [{"measurement": "MIC", "setting": "[1]", "value": "≤ 0.03", "unit": "µg/mL"}]}
{"compound": "NC1CCN(c2nc3c(cc2F)c(=O)c(C(=O)O)cn3-c2ccc(F)cc2F)C1", "note": "(stereo not shown) [Tosufloxacin, reference compound]", "values": [{"measurement": "MIC", "setting": "[2]", "value": "0.015 to 0.03", "unit": "µg/mL"}, {"measurement": "MIC", "setting": "[3]", "value": "2 to 16", "unit": "µg/mL"}]}
{"compound": "Nc1c(F)c(N2CCC(n3ccnn3)C2)c(F)c2c1c(=O)c(C(=O)O)cn2-c1ccc(F)cc1F", "note": "(stereo not shown) [Example 14, 5-Amino-1-(2,4-difluorophenyl)-6,8-difluoro-7-[3-(1,2,3-triazol-1-yl)pyrrolidin-1-yl]-1,4-dihydro-4-oxo-quinoline-3 carboxylic acid]", "values": [{"measurement": "MIC", "setting": "[1]", "value": "≤ 0.015", "unit": "µg/mL"}, {"measurement": "MIC", "setting": "[2]", "value": "0.008 to 0.03", "unit": "µg/mL"}, {"measurement": "MIC", "setting": "[4]; [14]", "value": 0.12, "unit": "µg/mL"}, {"measurement": "MIC", "setting": "[5]; [15]", "value": 2, "unit": "µg/mL"}, {"measurement": "MIC", "setting": "[6]; [16]", "value": 0.06, "unit": "µg/mL"}, {"measurement": "MIC", "setting": "[7]; [17]", "value": "> 64", "unit": "µg/mL"}, {"measurement": "MIC", "setting": "[8]; [18]", "value": 0.06, "unit": "µg/mL"}, {"measurement": "MIC", "setting": "[3]", "value": "1 to 8", "unit": "µg/mL"}]}
{"compound": "Nc1c(F)c(N2C[C@@H](N)[C@@H](n3ccnn3)C2)c(F)c2c1c(=O)c(C(=O)O)cn2-c1ccc(F)cc1F", "note": "(relative stereo) [Example 19, 5-Amino-7-[cis-3-amino-4-(1,2,3-triazol-1-yl)-pyrrolidin-1-yl]-1-(2,4-difluorophenyl)-6,8-difluoro-1,4-dihydro-4-oxo-quinoline-3-carboxylic acid]", "values": [{"measurement": "MIC", "setting": "[1]", "value": 0.5, "unit": "µg/mL"}]}
{"compound": "Nc1c(F)c(N2CCC(n3ccnn3)C2)c(F)c2c1c(=O)c(C(=O)O)cn2C1CC1", "note": "(stereo not shown) [Example 11, 5-Amino-1-cyclopropyl-6,8-difluoro-7-[3-(1,2,3-triazol-1-yl)-pyrrolidin-1-yl]-1,4-dihydro-4-oxo-quinoline-3-carboxylic acid]", "values": [{"measurement": "MIC", "setting": "[2]", "value": "0.004 to 0.008", "unit": "µg/mL"}, {"measurement": "MIC", "setting": "[4]; [14]", "value": 0.06, "unit": "µg/mL"}, {"measurement": "MIC", "setting": "[5]; [15]", "value": 0.06, "unit": "µg/mL"}, {"measurement": "MIC", "setting": "[6]; [16]", "value": 0.06, "unit": "µg/mL"}, {"measurement": "MIC", "setting": "[7]; [17]", "value": 1, "unit": "µg/mL"}, {"measurement": "MIC", "setting": "[8]; [18]", "value": "≤ 0.03", "unit": "µg/mL"}, {"measurement": "MIC", "setting": "[3]", "value": "0.5 to 2", "unit": "µg/mL"}]}
{"compound": "Nc1c(F)c(N2CC[C@@H](n3ccnn3)C2)c(F)c2c1c(=O)c(C(=O)O)cn2C1CC1", "note": "[Example 13, 5-Amino-1-cyclopropyl-6,8-difluoro-7-[3R-(1,2,3-triazol-1-yl)-pyrrolidin-1-yl)-1,4-dihydro-4-oxo-quinoline-3-carboxylic acid]", "values": [{"measurement": "MIC", "setting": "[1]", "value": 0.008, "unit": "µg/mL"}]}
{"compound": "Nc1c(F)c(N2CC[C@H](n3ccnn3)C2)c(F)c2c1c(=O)c(C(=O)O)cn2-c1ccc(F)cc1F", "note": "[Example 15]", "values": [{"measurement": "MIC", "setting": "[1]", "value": 0.015, "unit": "µg/mL"}, {"measurement": "MIC", "setting": "[2]", "value": "0.008 to 0.015", "unit": "µg/mL"}, {"measurement": "MIC", "setting": "[3]", "value": "1 to 16", "unit": "µg/mL"}]}
{"compound": "O=C(O)c1cn(C2CC2)c2cc(N3CCNCC3)c(F)cc2c1=O", "note": "[Ciprofloxacin, reference compound]", "values": [{"measurement": "MIC", "setting": "[9]", "value": 0.015, "unit": "µg/mL"}, {"measurement": "MIC", "setting": "[10]", "value": "≤ 0.008", "unit": "µg/mL"}, {"measurement": "MIC", "setting": "[11]", "value": 0.25, "unit": "µg/mL"}, {"measurement": "MIC", "setting": "[12]", "value": 0.015, "unit": "µg/mL"}, {"measurement": "MIC", "setting": "[13]", "value": 8, "unit": "µg/mL"}, {"measurement": "MIC", "setting": "[4]; AN16, 48 h", "value": 4, "unit": "µg/mL"}, {"measurement": "MIC", "setting": "[5]; Fusobacterium mortiferum, AN13, 48 h", "value": 16, "unit": "µg/mL"}, {"measurement": "MIC", "setting": "[6]; Streptococcus intermedius, AN19, 48 h", "value": 1, "unit": "µg/mL"}, {"measurement": "MIC", "setting": "[7]; Bacteroides, AN2, 48 h", "value": 16, "unit": "µg/mL"}, {"measurement": "MIC", "setting": "[8]; 48 h", "value": 0.5, "unit": "µg/mL"}]}
